We go through one molecule from patent publication US7238864B2, “Acetolactate synthase gene promoter” (priority 2004, dated 2007).

For assay [1], the target named is T1, ALS (Oryza sativa subsp. japonica, UniProt Q6K2E8).
T1 construct: 150 mg of leaves were sampled, finely cut, and then put into a petri dish; from tissue; host or cells: rice leaves (wild-type plants)
T1 sequence (Q6K2E8 44-644): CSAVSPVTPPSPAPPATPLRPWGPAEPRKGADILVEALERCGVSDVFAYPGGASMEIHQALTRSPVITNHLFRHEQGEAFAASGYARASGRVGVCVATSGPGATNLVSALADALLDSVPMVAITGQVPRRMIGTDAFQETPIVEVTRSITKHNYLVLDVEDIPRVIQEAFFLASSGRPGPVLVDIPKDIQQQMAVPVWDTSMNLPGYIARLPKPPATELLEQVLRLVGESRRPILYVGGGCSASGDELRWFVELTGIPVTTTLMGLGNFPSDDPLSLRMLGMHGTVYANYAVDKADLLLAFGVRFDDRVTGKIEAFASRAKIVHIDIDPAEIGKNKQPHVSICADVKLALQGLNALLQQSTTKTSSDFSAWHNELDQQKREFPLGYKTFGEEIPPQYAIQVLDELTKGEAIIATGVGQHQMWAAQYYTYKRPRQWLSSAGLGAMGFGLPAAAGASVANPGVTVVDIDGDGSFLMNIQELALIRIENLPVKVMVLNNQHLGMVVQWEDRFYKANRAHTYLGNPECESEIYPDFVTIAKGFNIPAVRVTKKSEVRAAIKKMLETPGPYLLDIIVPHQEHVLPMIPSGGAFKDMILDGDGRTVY
Put plainly: in vivo ALS assay on cut rice leaves (red colour development). It counts as cell-based. As to conditions: wild-type rice leaves, 0.15 μM (final concentration) BS, 30 °C under light for 1 day. How it is done:
(§1) A treatment solution (mixed salts for 25% MS media; 500 μM (final concentration) 1,1-cyclopropanedicarboxilic acid (CPCA); 5 μg Triton X-100; and 0.15 μM (final concentration) BS) was added to the dish, and the resultant was allowed to stand at 30 ° C. under light conditions (140001×) for 1 day. After reaction, the treated leaves were put into a 1.5 ml micro tube and then 200 μl of distilled water containing 0.025% Triton X-100 was added thereto. After the solution had been allowed to stand at 60° C. for 5 minutes, extraction was carried out with sonication (frequency of 40 kHz) for 15 minutes. 200 μl of the supernatant was transferred into another tube, 20 μl of 5% (v/v) sulfuric acid was added thereto, and then the resultant was allowed to stand at 60° C. for 30 minutes. Subsequently, 100 μl of a 0.5% (w/v) creatine and 100 μl of a 5% (w/v) 1-naphthol (prepared at the time of use) dissolved in a 2.5 N NaOH solution were added to the solution. The solution was allowed to stand at 37° C. for 30 minutes. […] It is understood that in the case of wild-type rice, the ALS gene was inhibited by addition of BS so that a red color was not developed.

Assay [2] addresses T2, ALS (Oryza sativa subsp. japonica, UniProt Q6K2E8, S627I/W548L).
T2 construct: 150 mg of leaves were sampled, finely cut, and then put into a petri dish; from tissue; host or cells: rice leaves (wild-type plants)
The assay is described as above. The following applies: leaves of rice with the ALS-promoter-driven BS-resistance (two-point mutated) ALS gene, 0.15 μM BS, 30 °C under light for 1 day. It counts as cell-based. The protocol:
as §1

T2 sequence (Q6K2E8 44-644 W548L/S627I): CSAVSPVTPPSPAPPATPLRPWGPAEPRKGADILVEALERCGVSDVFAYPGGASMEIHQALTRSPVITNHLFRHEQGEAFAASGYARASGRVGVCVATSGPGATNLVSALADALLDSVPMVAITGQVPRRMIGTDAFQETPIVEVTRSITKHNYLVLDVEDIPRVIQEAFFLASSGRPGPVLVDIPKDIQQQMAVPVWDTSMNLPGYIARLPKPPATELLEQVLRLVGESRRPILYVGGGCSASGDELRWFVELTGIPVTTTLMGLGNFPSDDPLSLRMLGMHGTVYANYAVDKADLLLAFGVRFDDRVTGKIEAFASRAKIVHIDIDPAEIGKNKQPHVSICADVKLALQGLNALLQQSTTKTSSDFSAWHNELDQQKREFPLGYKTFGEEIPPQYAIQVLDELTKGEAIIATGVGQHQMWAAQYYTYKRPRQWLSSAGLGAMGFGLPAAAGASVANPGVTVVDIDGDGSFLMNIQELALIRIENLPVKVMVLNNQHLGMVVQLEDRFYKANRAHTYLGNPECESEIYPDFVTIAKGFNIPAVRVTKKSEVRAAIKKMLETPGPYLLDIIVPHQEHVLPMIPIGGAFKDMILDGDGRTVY

In the case of `COc1cc(OC)nc(Oc2cccc(Oc3nc(OC)cc(OC)n3)c2C(=O)[O-])n1.[Na+]` [BS, Bispyribac sodium salt], the “ALS inhibition by addition of BS (red color development)” value in assay [1] is reported as “inhibited”. In addition, in assay [2], the “ALS activity with BS added (red color development)” value is reported as “development of a red color similar to that developed by a group of rice plants to which no BS had been added”.
